Assay results published in patent publication US20240139125A1 (INDUSTRIAL COOPERATION FOUNDATION JEONBUK NATIONAL …, priority 2020, published 2024).

Assays:
[1] = system: binding between mTORC2 and ribosomes; experiment: PLA of mTORC2-ribosome binding with Ca2+ chelators; type: cell-based; conditions: HT1080 cells, 10 μM
Method: FIG. 46A is the PLA result between the indicated proteins (fine and bright spots) in HT1080 cells treated with BAPTA-AM (10 μM), BAPTA (10 μM), and EGTA-AM (10 μM). The scale bar represents 15 μm. The graph on the right quantifies the fine, bright points (n=3, independent experiment). Data were expressed as mean±SD. **p<0.01; ****p<0.0001, Tukey's post hoc test after member ANOVA.
The role of Ca^2+ in mTORC2 activation was investigated. Ca^2+ depletion by BAPTA acetoxymethyl ester (BAPTA-AM) rather than BAPTA or slow Ca^2+ chelator (ie, EGTA-AM) blocked the binding between mTORC2 and ribosomes as shown in PLA analysis results. (See FIG. 46A).

BI-1 (TMBIM6) = experiment: HT1080 xenograft with SAMiRNA knockdown of BI-1; type: in vivo, nude mice; conditions: 1 mg/kg, intravenously in the tail every 3 days
Method: FIGS. 13A-13D show the volume, weight, and size of tumors derived from HT1080 in TMBIM6-target SAMiRNA, control SAMiRNA or nude mice injected with saline solution (n=5 mice per group) through the tail vein. Data were expressed as mean±SD. *p<0.05, ***p<0.001, ****p<0.0001, Bonferroni's post hoc test (B) after binary ANOVA, member ANOVA followed by Tukey's post hoc test.
In culture, exponentially growing BI-1 (TMBIM6) knockout and WT HT1080 cells were treated with trypsin and quantified through trypan blue staining differentiation, and 3-5×10^6 cells were resuspended in 0.1 ml PBS. Cells were injected subcutaneously into the flanks of each mouse. 5×10^6 cells were injected into 0.1 ml PBS for SMAiRNA or BIA treatment. When the weight of the tumor reaches about 100 mg (7-10 days after inoculation), mice are randomly assigned 1 mg/kg BI-1 SAMiRNA diluted in saline, 1 mg/kg BIA diluted in DMSO (final concentration: 10% v/v) or vehicle (saline solution or DMSO, 10% v/v) was divided into groups.
SAMiRNA was administered intravenously in the tail every 3 days and BIA was injected intraperitoneally 5 days per week over 3 weeks. […].
After 25-28 days, the mice were euthanized, solid tumors were incised, and tumor volumes were recorded. Tumor size was measured with a caliper. The tumor volume (mm^3) was calculated by the formula [(shortest diameter)2×longest diameter]/2.

Molecule	binding between mTORC2 and ribosomes [1]	tumor formation and Ki67 expression (BI-1 (TMBIM6))
CC(=O)OCOC(=O)CN(CC(=O)OCOC(C)=O)c1ccccc1OCCOc1ccccc1N(CC(=O)OCOC(C)=O)CC(=O)OCOC(C)=O [BAPTA-AM, BAPTA acetoxymethyl ester]	blocked	
SAMiRNA: self-assembled micelle inhibitory RNA against BI-1, sequence 5′-AAGGCACUGCAUUGAUCUUU-3′, obtained from Bioneer (siRNA; micelle-forming conjugate, chemistry not fully specified)		reduced
